In PubChem BioAssay (NCI):
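Compound exposure: 48 hours, 5 concentrations, 96-well plates. GI50 marks 50% less growth. TGI denotes the concentration required for complete inhibition of growth.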

Legend:
Assay in all cases: inhibition of tumour cell growth, NCI panel, 48 h
UACC-257 melanoma = test system: UACC-257 melanoma
IGROV1 ovarian = test system: IGROV1 ovarian
SNB-75 CNS = test system: SNB-75 CNS
SF-539 CNS = test system: SF-539 CNS
SF-295 CNS = test system: SF-295 CNS
DU-145 prostate = test system: DU-145 prostate
SN12C renal = test system: SN12C renal
SK-OV-3 ovarian = test system: SK-OV-3 ovarian
SR leukemia = test system: SR leukemia
HOP-62 NSCLC = test system: HOP-62 NSCLC
OVCAR-5 ovarian = test system: OVCAR-5 ovarian
T-47D breast = test system: T-47D breast
RXF 393 renal = test system: RXF 393 renal
786-0 renal = test system: 786-0 renal
NCI-H460 lung = test system: NCI-H460 lung
BT-549 breast = test system: BT-549 breast
UO-31 renal = test system: UO-31 renal
A498 renal = test system: A498 renal
A549 NSCLC = test system: A549 NSCLC
ACHN renal = test system: ACHN renal
HCT-116 colon = test system: HCT-116 colon
COLO 205 colon = test system: COLO 205 colon
NCI-H522 lung = test system: NCI-H522 lung
U251 CNS = test system: U251 CNS
CAKI-1 renal = test system: CAKI-1 renal
NCI/ADR-RES ovarian = test system: NCI/ADR-RES ovarian

How did the GI50 (UACC-257 melanoma) turn out when `CC(=O)Nc1cccc(-n2cnc3cc(-c4ccc(O)cc4)ccc32)c1` was run?
Its GI50 is 716 nM.

What about the TGI (UACC-257 melanoma) of the same compound?
Its TGI is 45500 nM.

And the GI50 (IGROV1 ovarian)?
The GI50 was 696 nM.

What about the TGI (IGROV1 ovarian) of the same compound?
The TGI was 29100 nM.

And the GI50 (SNB-75 CNS)?
Its GI50 is 232 nM.

What about the TGI (SNB-75 CNS) of the same compound?
The TGI was 929 nM.

And the GI50 (SF-539 CNS)?
The GI50 was 371 nM.

What about the TGI (SF-539 CNS) of the same compound?
Its TGI is 5950 nM.

And the GI50 (SF-295 CNS)?
The GI50 was 601 nM.

What about the TGI (SF-295 CNS) of the same compound?
Its TGI is 11000 nM.

What about the GI50 (DU-145 prostate) of the same compound?
The GI50 was 1760 nM.

What about the TGI (DU-145 prostate) of the same compound?
The TGI was 23600 nM.

What about the GI50 (SN12C renal) of the same compound?
Its GI50 is 546 nM.

What about the TGI (SN12C renal) of the same compound?
The TGI was 41400 nM.

What about the GI50 (SK-OV-3 ovarian) of the same compound?
The GI50 was 1160 nM.

And the TGI (SK-OV-3 ovarian)?
The TGI was 22100 nM.

And the GI50 (SR leukemia)?
Its GI50 is 182 nM.

And the TGI (SR leukemia)?
Its TGI is greater than 100000 nM.

What about the GI50 (HOP-62 NSCLC) of the same compound?
Its GI50 is 820 nM.

And the TGI (HOP-62 NSCLC)?
The TGI was 22500 nM.

What about the GI50 (OVCAR-5 ovarian) of the same compound?
Its GI50 is 10600 nM.

And the TGI (OVCAR-5 ovarian)?
The TGI was greater than 100000 nM.

What about the GI50 (T-47D breast) of the same compound?
Its GI50 is 534 nM.

And the TGI (T-47D breast)?
Its TGI is 19600 nM.

And the GI50 (RXF 393 renal)?
The GI50 was 834 nM.

And the TGI (RXF 393 renal)?
Its TGI is 8270 nM.

What about the GI50 (786-0 renal) of the same compound?
The GI50 was 780 nM.

What about the TGI (786-0 renal) of the same compound?
The TGI was 23200 nM.

And the GI50 (NCI-H460 lung)?
Its GI50 is 386 nM.

And the TGI (NCI-H460 lung)?
The TGI was 14600 nM.

What about the GI50 (BT-549 breast) of the same compound?
Its GI50 is 342 nM.

What about the TGI (BT-549 breast) of the same compound?
Its TGI is 11200 nM.

And the GI50 (UO-31 renal)?
Its GI50 is 716 nM.

And the TGI (UO-31 renal)?
The TGI was 15000 nM.

What about the GI50 (A498 renal) of the same compound?
The GI50 was 249 nM.

What about the TGI (A498 renal) of the same compound?
Its TGI is 982 nM.

What about the GI50 (A549 NSCLC) of the same compound?
Its GI50 is 730 nM.

What about the TGI (A549 NSCLC) of the same compound?
The TGI was 80900 nM.

And the GI50 (ACHN renal)?
Its GI50 is 894 nM.

And the TGI (ACHN renal)?
Its TGI is 16800 nM.

What about the GI50 (HCT-116 colon) of the same compound?
Its GI50 is 413 nM.

What about the TGI (HCT-116 colon) of the same compound?
Its TGI is 27200 nM.

What about the GI50 (COLO 205 colon) of the same compound?
Its GI50 is 3860 nM.

What about the TGI (COLO 205 colon) of the same compound?
The TGI was 40100 nM.

And the GI50 (NCI-H522 lung)?
Its GI50 is 176 nM.

What about the TGI (NCI-H522 lung) of the same compound?
The TGI was 503 nM.

What about the GI50 (U251 CNS) of the same compound?
The GI50 was 365 nM.

And the TGI (U251 CNS)?
Its TGI is 30200 nM.

And the GI50 (CAKI-1 renal)?
The GI50 was 668 nM.

What about the TGI (CAKI-1 renal) of the same compound?
The TGI was 14000 nM.

What about the GI50 (NCI/ADR-RES ovarian) of the same compound?
The GI50 was 428 nM.

What about the TGI (NCI/ADR-RES ovarian) of the same compound?
The TGI was 11500 nM.
